Measured values reported in patent US20060099586A1, “Eef1a2 for use in the prognosis, diagnosis, and treatment of cancer” (priority 2002, published 2006).

Columns and labels:
[1] = tested on: NIH 3T3 cells ectopically expressing EEF1A2; experiment: Drug-induced apoptosis in NIH 3T3 cells ectopically expressing EEF1A2; assay type: cell-based, mouse
Source text: Patients with tumor samples that are positive for EEF1A2 are expected to survive for a shorter period of time as compared to patients with tumor sample negative for EEF1A2. Prognostic information relating to EEF1A2-gene amplification and/or EEF1A2 protein expression can be used to enhance clinical decision-making and to select appropriate treatment regimes. NIH 3T3 cells ectopically expressing EEF1A2 are resistant to the apoptosis-induced by cisplatin and staurosporine. Further, mice lacking EEF1A2 show increased lymphoid apoptosis. Accordingly, it is believed that EEF1A2 modulates the sensitivity of cancer cells to selected treatments.

EEF1A1 mRNA = EEF1A1 mRNA levels after antisense oligonucleotide treatment of human Ramos cells; assay type: cell-based
Source text: (§1) Antisense inactivation of EEF1A2 was achieved using two EEF1A2-specific phosphorothioated antisense oligonucleotides. Phosphorothioated DNA oligonucleotides were used as these modified oligonucleotides are non-toxic in humans, nuclease resistant, stable in vivo and in vitro, are readily taken up by cells and activate rapid degradation of the mRNA target (Gewirtz et al. Blood 1998 92:712-736; Agrawal et al. Proc. Natl. Acad. Sci. USA 1990 87:1401-1405). However, as will be understood by those of skill in the art upon reading this disclosure, other modifications well known to those skilled in the art can be used.
(§2) Both antisense oligonucleotides decreased EEF1A2 mRNA levels in human Ramos cells. mRNA levels of EEF1A1 were not decreased by administration of these antisense oligonucleotides. A control sequence, GGTTGCTGTGGGCTTGAGT (SEQ ID NO:4) had no effect on mRNA levels of EEF1A2 or EEF1A1 in the human Ramos cells.

EEF1A2 mRNA = EEF1A2 mRNA levels after antisense oligonucleotide treatment of human Ramos cells; assay type: cell-based
Source text: as §1, §2

Row | Molecule | apoptosis induced by the drug [1] | effect on EEF1A1 mRNA levels (EEF1A1 mRNA) | effect on EEF1A2 mRNA levels (EEF1A2 mRNA)
1 | N.N.[Cl][Pt][Cl] [cisplatin] | resistant | – | –
2 | CN[C@@H]1C[C@H]2O[C@@](C)([C@@H]1OC)n1c3ccccc3c3c4c(c5c6ccccc6n2c5c31)C(=O)NC4 [staurosporine] | resistant | – | –
3 | SEQ ID NO:4: control sequence GGTTGCTGTGGGCTTGAGT (listed as DNA, chemistry not given here) | – | no effect | no effect
